Experimental data published in patent EP4335840A1, “NEW CONTRAST AGENTS FOR USE IN DIAGNOSTIC IMAGING” (priority 2022, dated 2024).

Experiments:
[1] = Relaxivity measurements at 1.41 T in water and human plasma; format: physicochemical; conditions: 37°C, normalized to Gd
Method: Relaxivity measurements at 1.41 T were performed using a MiniSpec mq60 spectrometer (Bruker Analytik, Karlsruhe, Germany) operating at a resonance frequency of 60 MHz and a temperature of 37°C. The T1 relaxation times were determined using the standard inversion recovery (IR) method with a fixed relaxation delay of at least 5 × T1. The variable inversion time (TI) was calculated automatically by the standard software of the MiniSpec mq60 (8 steps). The T2 measurements were performed by using a Carr-Purcell-Meiboom-Gill (CPMG) pulse sequence, applying a relaxation delay of at least 5 × T1.
Each relaxivity measurement was performed using three different Gd concentrations (3 concentrations between 0.05 and 2 mM). The T1 and T2 relaxation times of the example compounds 1 to 10 were measured in different media for example in water and human plasma. Human plasma preparation: For each experiment fresh blood was taken from a volunteer using 10 mL citrate-tubes (Sarstedt S-Monovette 02.1067.001, 10 mL, Citrate). The 10 mL citrate-tubes were carefully inverted 10 times to mix blood and anticoagulant and centrifuged for 15min at 1811 g at RT (Eppendorf, Centrifuge 5810R).
The relaxivities ri (where i=1, 2) were calculated based on the measured relaxation rates Ri in water and plasma: ri = (Ri−Ri(0))/CGd [formula] where Ri(0) represent the relaxation rate of the respective solvent and CGd the concentration of the compound normalized to the Gadolinium. The Gadolinium concentrations of the investigated solutions were verified by Inductively Coupled Plasma Mass Spectrometry (ICP-MS Agilent 7500a, Waldbronn, Germany). Table 3: Relaxivities of investigated compounds in water and human plasma at 1.41 T and relaxivities of Reference compounds 1-3 (RC1-RC3) at 1.5 T in water and bovine plasma. All values are measured at 37°C and normalized to Gd and given in L mmol-1 s-1.

OATP1B1 [2] = target: T1, OATP1B1 (Homo sapiens, UniProt Q9Y6L6); assay: Uptake into stable transfected OATP1B1 HEK 293 cells; format: cell-based; conditions: 100 µM, 40 min, relative to RC1 (Gd-EOB-DTPA)
T1 sequence (Q9Y6L6 1-691): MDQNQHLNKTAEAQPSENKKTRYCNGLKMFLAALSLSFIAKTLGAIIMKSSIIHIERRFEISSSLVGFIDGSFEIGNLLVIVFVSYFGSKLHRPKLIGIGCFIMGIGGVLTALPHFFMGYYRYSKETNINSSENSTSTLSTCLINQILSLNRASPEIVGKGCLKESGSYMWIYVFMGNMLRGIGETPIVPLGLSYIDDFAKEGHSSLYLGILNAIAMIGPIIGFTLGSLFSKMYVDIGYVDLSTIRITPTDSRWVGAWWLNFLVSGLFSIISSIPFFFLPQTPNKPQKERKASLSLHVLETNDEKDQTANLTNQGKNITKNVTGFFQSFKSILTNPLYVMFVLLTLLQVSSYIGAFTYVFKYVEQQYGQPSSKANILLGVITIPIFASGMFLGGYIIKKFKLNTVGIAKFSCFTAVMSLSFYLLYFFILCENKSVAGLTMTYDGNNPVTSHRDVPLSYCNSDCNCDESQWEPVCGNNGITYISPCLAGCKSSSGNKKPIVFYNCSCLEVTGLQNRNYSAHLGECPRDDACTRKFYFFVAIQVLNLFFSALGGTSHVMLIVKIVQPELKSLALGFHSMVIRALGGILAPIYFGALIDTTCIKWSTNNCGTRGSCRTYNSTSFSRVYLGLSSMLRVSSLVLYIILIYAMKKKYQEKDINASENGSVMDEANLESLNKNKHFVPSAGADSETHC
Method: Human stable transfected OATP1B1 human embryonic kidney 293 cells (OATP1B1 HEK 293, SLCO1B1, Entrez Gene ID: 10599) were used (Leonhardt M et al. Drug Metab Dispos. 2010 Jul;38(7):1024-8). The following culture medium was used: 500 mL DMEM (Dulbecco's Modified Eagle Medium - high Glucose, D6429), 50 mL FCS (fetal bovine serum, Fa. Sigma, F7524), 5.8 mL G418 (Geneticin, Fa. Gibco 10131-027) and 5 mL Pen-Strep. (Penicillin-Streptomycin, Fa. Gibco, Ref 15140-122). Cryopreserved cells were shortly thawed in water bath and diluted in 10 mL warm culture medium (37°C). After medium change the cells were grown for 3d in a 25 cm^2 cell culture flask. After 3 to 5d the cells were transferred into 75 cm^2 flasks. For the splitting the cells were incubated with 1.5 mL trypsin (Trypsin-EDTA (1x) 0,05%, Ref 25300-054 100ml, Fa. Gibco) for 3-5min in the incubator (37°C, 5% CO2 and […]). After centrifugation and washing with medium the cells were counted (50 µL cell suspension and 50 µL trypan blue (Trypan Blue Solution, 93595-50ml, Fa. Fluka). Cells were cultured (1×10^5 cells/well) in poly-D-lysine coated 24-well plates (Fa. Corning, Ref: 354414) in 1.5 mL medium per well. After 48h in the incubator the medium was changed and 1.5 mL/well sodium butyrate containing medium were added (40 mL culture medium plus 400 µL Na-Butyrate, Fa. Sigma Aldrich B5887-5G, 250 mg in 2.27 mL MilliQ water). After 24h in the incubator the medium was vacuumed off and 1.5 mL transport buffer was added and incubated for 10min. The transport buffer contains the following ingredients: 500 mL HBSS (Hank's balanced salt solution, Hyclone, SH30268.01), 5 mL HEPES buffer (4-(2-hydroxyethyl)-1-piperazineethanesulfonic acid, Gibco 15630-056) and 3.9 mL glucose (Sigma, G8270-100, 90 g/200mL MilliQ water). All test items were prepared in transport buffer at a final concentration of 100 µM from stock solutions (180 to 500 mM concentration). The OATP1B1 HEK 293 cells were incubated with test solutions (test item in transport buffer 500 µL) for 40min on a thermoshaker without shaking (PHMP, Fa. Grant Bio). Triplicates were performed for each test item. After incubation the cells were washed with 2 mL of cold PBS (+) buffer (Dulbeccos PBS +, Fa. Gibco). […] As a reference standard Gd-EOB-DTPA (gadoxetate) is used in the same well plate. The OATP1B1 HEK 293 uptake of the test compound is calculated relative to gadoxetate (resulting in the unit % of RC1).

OATP1B1 [3] = target: T1, OATP1B1; assay: as above; format: cell-based; conditions: OATP1B1-HEK 293 cell uptake with Rifampicine
[4] = tested on: freshly isolated rat hepatocytes; assay: Uptake into freshly isolated rat hepatocytes; conditions: for Uptake rat hepatocytes: 100 µmol Gd/L, 10 min, 37°C, relative to RC1 (Gd-EOB-DTPA); for Inhibition Rifampicine: rat hepatocyte uptake with OATP1B1/1B3 inhibitor Rifampicine, test item and inhibitor each 100 µM
Method: The rat hepatocytes were incubated (2.5 ·10^5 cells/well) for 2.5 to 4h in collagen coated 24-well plates (Fa. Beckton Dickinson Biocoat, cell environments, Collagen I Cellware) in Williams E-medium (Fa. Sigma W1878) in an incubator (37°C, 5% CO2 and 95% oxygen). After incubation the adherent hepatocytes were washed once with 37°C Hepes carbonate transport buffer (500 µL/well). The test items and RC1 were prepared from stock solutions (180 to 500 mM concentration) in Hepes carbonate transport buffer at pH 7.4 to reach a final concentration of 100 µmοl Gd/L. The specific uptake of the test item or RC1 into rat hepatocytes via OATP1 B1 and OATP1 B3 was challenged using a known OATP1B1/1B3 inhibitor (Rifampicine, Fa. Sigma R3501, test item and inhibitor 1:1 each 100 µM final concentration). The prepared rat hepatocyte plates were incubated with test solutions (500 µL/well) at 37°C for 10 min using a thermoshaker (Fa. Grant Bio, PHMP). Triplicates were performed for each test item. After incubating the cells were washed once with cold PBS buffer (Fa. Gibco, Dulbeccos PBS (+)). After washing the intact hepatocytes were lysed by addition of 500 µL cold 0.01 % Triton-X 100 in Millipore water for 1h. […] After 1h 500 µL of 10 nM Terbium ICP-MS standard was added in 2% nitric acid and 0.01% Triton 100 before the Gadolinium concentrations in the lysate were measured using ICP-MS (Agilent 8900, singleQuad, integr. Time 0.3 s, no gas, 5 replicates, Gd m/z 157, Tb m/z 159). As a reference standard RC1 is used in the same well plate. The hepatocyte uptake of the test compound is calculated relative to RC1 (resulting in the unit % of RC1).

For “Gadolinium-2,2',2"-[(2S)-2-(4-butoxybenzyl)-10-(carboxymethyl)-1,4,7,10-tetraaza cyclododecane-1,4,7-triyl]triacetate [Example 13]”, the r1 human plasma [1] was 9.8 L/mmol/s, the r1 water [1] was 5.3 L/mmol/s and the “Uptake into OATP1B1-HEK 293 cells” value (OATP1B1 [2]) was 847 % of RC1. For the same substance, the “Inhibition Rifampicine” value (OATP1B1 [3]) was 88 % inhibition, the Uptake rat hepatocytes [4] was 137 % of RC1 and the “Inhibition Rifampicine” value [4] was 86 % inhibition.

In the case of “Gadolinium-2,2',2"-[10-(carboxymethyl)-2-(4-ethoxybenzyl)-1,4,7,10-tetraazacyclododecane-1,4,7-triyl]triacetate [Example 8]”, the r1 human plasma [1] was 6.5 L/mmol/s, the r1 water [1] was 4.7 L/mmol/s and the “Uptake into OATP1B1-HEK 293 cells” value (OATP1B1 [2]) was 208 % of RC1. For the same substance, the “Inhibition Rifampicine” value (OATP1B1 [3]) was 75 % inhibition, the Uptake rat hepatocytes [4] was 143 % of RC1 and the “Inhibition Rifampicine” value [4] was 96 % inhibition.

With “Gadolinium-2,2',2"-[(2S)-10-(carboxymethyl)-2-(4-ethoxybenzyl)-1,4,7,10-tetraazacyclododecane-1,4,7-triyl]triacetate [Example 10]” the r1 human plasma [1] was 6.4 L/mmol/s, the r1 water [1] was 4.8 L/mmol/s and the “Uptake into OATP1B1-HEK 293 cells” value (OATP1B1 [2]) was 212 % of RC1. The “Inhibition Rifampicine” value (OATP1B1 [3]) was 73 % inhibition, the Uptake rat hepatocytes [4] was 104 % of RC1 and the “Inhibition Rifampicine” value [4] was 96 % inhibition.

For “Gadolinium-2,2',2"-[(2S)-10-(carboxymethyl)-2-(4-ethoxybenzyl)-1,4,7,10-tetraazacyclododecane-1,4,7-triyl]triacetate [Example 11]”, the r1 human plasma [1] was 6.2 L/mmol/s, the r1 water [1] was 4.4 L/mmol/s and the “Uptake into OATP1B1-HEK 293 cells” value (OATP1B1 [2]) was 96 % of RC1. For the same substance, the “Inhibition Rifampicine” value (OATP1B1 [3]) was 64 % inhibition, the Uptake rat hepatocytes [4] was 49 % of RC1 and the “Inhibition Rifampicine” value [4] was 96 % inhibition.

In the case of “Gadolinium-2,2',2"-[(2S)-2-(4-butoxybenzyl)-10-(carboxymethyl)-1,4,7,10-tetraaza cyclododecane-1,4,7-triyl]triacetate [Example 12]”, the r1 human plasma [1] was 8.8 L/mmol/s, the r1 water [1] was 4.7 L/mmol/s and the “Uptake into OATP1B1-HEK 293 cells” value (OATP1B1 [2]) was 119 % of RC1. For the same substance, the “Inhibition Rifampicine” value (OATP1B1 [3]) was 81 % inhibition, the Uptake rat hepatocytes [4] was 110 % of RC1 and the “Inhibition Rifampicine” value [4] was 96 % inhibition.

In the case of “Gadolinium-2,2',2"-[10-(carboxymethyl)-2-(4-ethoxybenzyl)-1,4,7,10-tetraazacyclododecane-1,4,7-triyl]triacetate [Example 9]”, the r1 human plasma [1] was 5.6 L/mmol/s, the r1 water [1] was 4.3 L/mmol/s and the “Uptake into OATP1B1-HEK 293 cells” value (OATP1B1 [2]) was 60 % of RC1. For the same substance, the “Inhibition Rifampicine” value (OATP1B1 [3]) was 23 % inhibition, the Uptake rat hepatocytes [4] was 42 % of RC1 and the “Inhibition Rifampicine” value [4] was 93 % inhibition.
